# How the values were obtained:
# Ethanol Red™ = assay: Addition of acetate to ethanol fermentations (SSF of corn mash); settings: for % change over no added acetate: glycerol
# Protocol: The yeast strain tested in this experiment was Ethanol […] ). […] After a total of 30 minutes, the flasks were removed from the water bath. Total yeast concentration was determined using the YC-100 in duplicate. LactrolTM (PhibroChem) was added to each mash to a final concentration of 24 ppm. […] Approximately 5 grams of each of the resulting mashes was transferred to test tubes having a 1/64 hole drilled in the top to allow CO2 release. […] Yeast was dosed at 5×10e6 cells/g mash. Milli-Q water was added to each tube so that a total volume of liquid added (enzyme+MQ water+acid) to each tube would be equally proportionate to the mash weight. Fermentations took place in a 32° C. water bath for 54 hours. Samples were vortexed periodically (in the morning and in the evening) throughout the fermentation. […] Fermentation sampling took place after 48 and 54 hours of fermentation by sacrificing 3 tubes per treatment. […] All samples were processed without further dilution. Samples were stored at 4° C. prior to and during HPLC analysis. Samples were analyzed for sugars (DP4+, DP3, DP2, glucose, and fructose), organic acids (lactic and acetic), glycerol, and ethanol.
# zein [1] = assay: Relative activity assay of protease variants (zein micro titer plate); assay type: biochemical
# Summary of the method: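 Yeast culture supernatants (3 days, 28 °C) incubated over 4 h or overnight on zein-agar plates (pH 4.5 acetate, 0.25 mM ZnSO4) at two temperatures. Zein turbidity read at A630; higher/lower-temperature activity ratio gives relative thermoactivity.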
# zein [2] = assay: Zein-BCA assay, temperature profile of purified protease variants; assay type: biochemical
# Protocol: Selected variants showing good thermo-stability were purified and the purified enzymes were used in a zein-BCA assay as described below. The remaining protease activity was determined at 60° C. after incubation of the enzyme at elevated temperatures as indicated for 60 min.
# Zein-BCA assay was performed to detect soluble protein quantification released from zein by variant proteases at various temperatures.
# • 1) Mix 10 ul of 10 ug/ml enzyme solutions and 100 ul of 0.025% zein solution in a micro titer plate (MTP). • 2) Incubate at various temperatures for 60 min. • 3) Add 10 ul of 100% trichloroacetic acid (TCA) solution. • 4) Centrifuge MTP at 3500 rpm for 5 min. • 5) Take out 15 ul to a new MTP containing 100 ul of BCA assay solution (Pierce Cat#:23225, BCA Protein Assay Kit). • 6) Incubate for 30 min. at 60° C. • 7) Measure A562.
# [3] = Sample incubated 60 min at 60° C.
# [4] = Sample incubated 60 min at 70° C.
# [5] = Sample incubated 60 min at 75° C.
# [6] = Sample incubated 60 min at 80° C.
# [7] = Sample incubated 60 min at 85° C.
# [8] = Sample incubated 60 min at 90° C.
# [9] = Sample incubated 60 min at 95° C.
molecule,measurement,setting,value
"CC(=O)O [Acetate, acetic acid]",Glycerol levels with added acetate,Ethanol Red™,reduced
same,48 Hour ETOH (w/v %),"Ethanol Red™; Added Acetate 5 mM, 48 hours",13.55 w/v %
same,48 Hour Glycerol (w/v %),"Ethanol Red™; Added Acetate 5 mM, 48 hours",1.636 w/v %
same,% Boost over no added acetate,"Ethanol Red™; Added Acetate 5 mM, 48 hours",0.28%
same,54 Hour ETOH (w/v %),"Ethanol Red™; Added Acetate 5 mM, 54 hours",13.71 w/v %
same,54 Hour Glycerol (w/v %),"Ethanol Red™; Added Acetate 5 mM, 54 hours",1.625 w/v %
same,% Boost over no added acetate,"Ethanol Red™; Added Acetate 5 mM, 54 hours",0.97%
same,48 Hour ETOH (w/v %),"Ethanol Red™; Added Acetate 10 mM, 48 hours",13.66 w/v %
same,48 Hour Glycerol (w/v %),"Ethanol Red™; Added Acetate 10 mM, 48 hours",1.553 w/v %
same,% Boost over no added acetate,"Ethanol Red™; Added Acetate 10 mM, 48 hours",1.07%
same,54 Hour ETOH (w/v %),"Ethanol Red™; Added Acetate 10 mM, 54 hours",13.73 w/v %
same,54 Hour Glycerol (w/v %),"Ethanol Red™; Added Acetate 10 mM, 54 hours",1.569 w/v %
same,% Boost over no added acetate,"Ethanol Red™; Added Acetate 10 mM, 54 hours",1.10%
same,48 Hour ETOH (w/v %),"Ethanol Red™; Added Acetate 20 mM, 48 hours",13.77 w/v %
same,48 Hour Glycerol (w/v %),"Ethanol Red™; Added Acetate 20 mM, 48 hours",1.462 w/v %
same,% Boost over no added acetate,"Ethanol Red™; Added Acetate 20 mM, 48 hours",1.88%
same,54 Hour ETOH (w/v %),"Ethanol Red™; Added Acetate 20 mM, 54 hours",13.83 w/v %
same,54 Hour Glycerol (w/v %),"Ethanol Red™; Added Acetate 20 mM, 54 hours",1.45 w/v %
same,% Boost over no added acetate,"Ethanol Red™; Added Acetate 20 mM, 54 hours",1.90%
same,48 Hour ETOH (w/v %),"Ethanol Red™; Added Acetate 40 mM, 48 hours",13.82 w/v %
same,48 Hour Glycerol (w/v %),"Ethanol Red™; Added Acetate 40 mM, 48 hours",1.365 w/v %
same,% Boost over no added acetate,"Ethanol Red™; Added Acetate 40 mM, 48 hours",2.29%
same,54 Hour ETOH (w/v %),"Ethanol Red™; Added Acetate 40 mM, 54 hours",13.83 w/v %
same,54 Hour Glycerol (w/v %),"Ethanol Red™; Added Acetate 40 mM, 54 hours",1.365 w/v %
same,% Boost over no added acetate,"Ethanol Red™; Added Acetate 40 mM, 54 hours",1.84%
same,48 Hour ETOH (w/v %),"Ethanol Red™; Added Acetate 60 mM, 48 hours",13.88 w/v %
same,48 Hour Glycerol (w/v %),"Ethanol Red™; Added Acetate 60 mM, 48 hours",1.332 w/v %
same,% Boost over no added acetate,"Ethanol Red™; Added Acetate 60 mM, 48 hours",2.71%
same,54 Hour ETOH (w/v %),"Ethanol Red™; Added Acetate 60 mM, 54 hours",13.83 w/v %
same,54 Hour Glycerol (w/v %),"Ethanol Red™; Added Acetate 60 mM, 54 hours",1.323 w/v %
same,% Boost over no added acetate,"Ethanol Red™; Added Acetate 60 mM, 54 hours",1.84%
same,48 Hour ETOH (w/v %),"Ethanol Red™; Added Acetate 120 mM, 48 hours",12.92 w/v %
same,48 Hour Glycerol (w/v %),"Ethanol Red™; Added Acetate 120 mM, 48 hours",1.337 w/v %
same,% Boost over no added acetate,"Ethanol Red™; Added Acetate 120 mM, 48 hours",−4.41%
same,54 Hour ETOH (w/v %),"Ethanol Red™; Added Acetate 120 mM, 54 hours",12.94 w/v %
same,54 Hour Glycerol (w/v %),"Ethanol Red™; Added Acetate 120 mM, 54 hours",1.34 w/v %
same,% Boost over no added acetate,"Ethanol Red™; Added Acetate 120 mM, 54 hours",−4.68%
same,% change over no added acetate,"Ethanol Red™; Added Acetate 5 mM, 48 hours",−4.68%
same,% change over no added acetate,"Ethanol Red™; Added Acetate 5 mM, 54 hours",−3.86%
same,% change over no added acetate,"Ethanol Red™; Added Acetate 10 mM, 48 hours",−9.53%
same,% change over no added acetate,"Ethanol Red™; Added Acetate 10 mM, 54 hours",−7.18%
same,% change over no added acetate,"Ethanol Red™; Added Acetate 20 mM, 48 hours",−14.85%
same,% change over no added acetate,"Ethanol Red™; Added Acetate 20 mM, 54 hours",−14.21%
same,% change over no added acetate,"Ethanol Red™; Added Acetate 40 mM, 48 hours",−20.48%
same,% change over no added acetate,"Ethanol Red™; Added Acetate 40 mM, 54 hours",−19.21%
same,% change over no added acetate,"Ethanol Red™; Added Acetate 60 mM, 48 hours",−22.40%
same,% change over no added acetate,"Ethanol Red™; Added Acetate 60 mM, 54 hours",−21.70%
same,% change over no added acetate,"Ethanol Red™; Added Acetate 120 mM, 48 hours",−22.09%
same,% change over no added acetate,"Ethanol Red™; Added Acetate 120 mM, 54 hours",−20.68%
"JTP050: protease variant of SEQ ID NO: 3: D79L/S87P/A112P/D142L (protein, listed as Thermoascus aurantiacus) MRLVASLTALVALSVPVFPAAVNVKRASSYLEITLSQVSNTLIKAVVQNTGSDELSFVHLNFFKDPAPVKKVSVYRDGSEVQFEGILSRYKSTGLSRDAFTYLAPGESVEDVFDIASTYDLTSGGPVTIRTEGVVPYATANSTDIAGYISYSSNVLTIDVDGAAAATVSKAITPLDRRTRISSCSGSRQSALTTALRNAASLANAAADAAQSGSASKFSEYFKTTSSSTRQTVAARLRAVAREASSSSSGATTYYCLDPYGYCSPNVLAYTLPSYNIIANCDIFYTYLPPLTSTCHAQDQATTALHEFTHAPGVYSPGTLDLAYGYQAAMGLSSSQAVMNADTYALYANAIYLGC",Relative activity 75° C./65° C.,zein [1]; Table 3,88%
same,Relative activity 75° C./70° C.,"zein [1]; Table 5, upper part",55%
same,Relative activity 80° C./70° C.,"zein [1]; Table 5, upper part",23%
same,Relative activity 85° C./70° C.,"zein [1]; Table 5, upper part",9%
same,Bovine serum albumin equivalent peptide released,zein [2]; [3],86 µg/mL
same,Bovine serum albumin equivalent peptide released,zein [2]; [4],101 µg/mL
same,Bovine serum albumin equivalent peptide released,zein [2]; [5],107 µg/mL
same,Bovine serum albumin equivalent peptide released,zein [2]; [6],107 µg/mL
same,Bovine serum albumin equivalent peptide released,zein [2]; [7],104 µg/mL
same,Bovine serum albumin equivalent peptide released,zein [2]; [8],63 µg/mL
same,Bovine serum albumin equivalent peptide released,zein [2]; [9],36 µg/mL
"JTP188: protease variant of SEQ ID NO: 3: D79L Y82F S87G D104P A112P D142L (protein, listed as Thermoascus aurantiacus) MRLVASLTALVALSVPVFPAAVNVKRASSYLEITLSQVSNTLIKAVVQNTGSDELSFVHLNFFKDPAPVKKVSVYRDGSEVQFEGILSRYKSTGLSRDAFTYLAPGESVEDVFDIASTYDLTSGGPVTIRTEGVVPYATANSTDIAGYISYSSNVLTIDVDGAAAATVSKAITPLDRRTRISSCSGSRQSALTTALRNAASLANAAADAAQSGSASKFSEYFKTTSSSTRQTVAARLRAVAREASSSSSGATTYYCLDPFGYCSGNVLAYTLPSYNIIANCPIFYTYLPPLTSTCHAQDQATTALHEFTHAPGVYSPGTLDLAYGYQAAMGLSSSQAVMNADTYALYANAIYLGC",Relative activity 80° C./70° C.,"zein [1]; Table 5, upper part",43%
same,Bovine serum albumin equivalent peptide released,zein [2]; [3],71 µg/mL
same,Bovine serum albumin equivalent peptide released,zein [2]; [4],83 µg/mL
same,Bovine serum albumin equivalent peptide released,zein [2]; [5],86 µg/mL
same,Bovine serum albumin equivalent peptide released,zein [2]; [6],93 µg/mL
same,Bovine serum albumin equivalent peptide released,zein [2]; [7],100 µg/mL
same,Bovine serum albumin equivalent peptide released,zein [2]; [8],75 µg/mL
same,Bovine serum albumin equivalent peptide released,zein [2]; [9],53 µg/mL
"JTP077: protease variant of SEQ ID NO: 3: A27K/D79L/S87P/A112P/D142L (protein, listed as Thermoascus aurantiacus) MRLVASLTALVALSVPVFPAAVNVKRASSYLEITLSQVSNTLIKAVVQNTGSDELSFVHLNFFKDPAPVKKVSVYRDGSEVQFEGILSRYKSTGLSRDAFTYLAPGESVEDVFDIASTYDLTSGGPVTIRTEGVVPYATANSTDIAGYISYSSNVLTIDVDGAAAATVSKAITPLDRRTRISSCSGSRQSALTTALRNAASLANKAADAAQSGSASKFSEYFKTTSSSTRQTVAARLRAVAREASSSSSGATTYYCLDPYGYCSPNVLAYTLPSYNIIANCDIFYTYLPPLTSTCHAQDQATTALHEFTHAPGVYSPGTLDLAYGYQAAMGLSSSQAVMNADTYALYANAIYLGC",Relative activity 75° C./65° C.,zein [1]; Table 3,106%
same,Bovine serum albumin equivalent peptide released,zein [2]; [3],82 µg/mL
same,Bovine serum albumin equivalent peptide released,zein [2]; [4],94 µg/mL
same,Bovine serum albumin equivalent peptide released,zein [2]; [5],104 µg/mL
same,Bovine serum albumin equivalent peptide released,zein [2]; [6],105 µg/mL
same,Bovine serum albumin equivalent peptide released,zein [2]; [7],99 µg/mL
same,Bovine serum albumin equivalent peptide released,zein [2]; [8],56 µg/mL
same,Bovine serum albumin equivalent peptide released,zein [2]; [9],31 µg/mL
"WT: wild type Thermoascus aurantiacus M35 metallo protease, mature peptide amino acids 1 to 177 of SEQ ID NO: 3, no substitution (protein, listed as Thermoascus aurantiacus) MRLVASLTALVALSVPVFPAAVNVKRASSYLEITLSQVSNTLIKAVVQNTGSDELSFVHLNFFKDPAPVKKVSVYRDGSEVQFEGILSRYKSTGLSRDAFTYLAPGESVEDVFDIASTYDLTSGGPVTIRTEGVVPYATANSTDIAGYISYSSNVLTIDVDGAAAATVSKAITPLDR",Relative activity 65° C./60° C.,zein [1]; Table 2,31%
same,Relative activity 70° C./65° C.,zein [1]; Table 3,59%
same,Relative activity 75° C./65° C.,zein [1]; Table 3,17%
same,Bovine serum albumin equivalent peptide released,zein [2]; [3],94 µg/mL
same,Bovine serum albumin equivalent peptide released,zein [2]; [4],103 µg/mL
same,Bovine serum albumin equivalent peptide released,zein [2]; [5],107 µg/mL
same,Bovine serum albumin equivalent peptide released,zein [2]; [6],93 µg/mL
same,Bovine serum albumin equivalent peptide released,zein [2]; [7],58 µg/mL
same,Bovine serum albumin equivalent peptide released,zein [2]; [8],38 µg/mL
